Measurements as given in patent publication US20230091608A1, “COMPOUND AND DIAGNOSTIC SYSTEM COMPRISING SAID COMPOUND FOR THE GUSTATORY DETECTION OF INFLAMMATIONS IN THE ORAL CAVITY” (Julius-Maximilians-Universitaet Wuerzburg, priority 2019, published 2023).

Test system: aminopeptidase (AP)
Experiment: Cleavage of [Ia-X] constructs by aminopeptidase (AP), LC/MS for complete degradation
Assay type: biochemical
Procedure: To trigger maximum gustatory perception, the last amino acid from the modified denatonium must also be removed by the aminopeptidase.
The resulting constructs were incubated with AP for 24 h and analyzed by LC/MS for complete degradation (Table 2).

Molecule | Detectable after 24 h incubation with AP
NC(=O)C[C@H](N)C(=O)O [Asparagine] | +
N[C@@H](CC(=O)O)C(=O)O [Aspartic acid] | +
N[C@@H](CS)C(=O)O [Cysteine] | −
N[C@@H](CCC(=O)O)C(=O)O [Glutamic acid] | −
NC(=O)CC[C@H](N)C(=O)O [Glutamine] | +
NCC(=O)O [Glycine] | +
N[C@@H](Cc1c[nH]cn1)C(=O)O [Histidine] | +
CC[C@H](C)[C@H](N)C(=O)O [Isoleucine] | +
CC(C)C[C@H](N)C(=O)O [Leucine] | −
CSCC[C@H](N)C(=O)O [Methionine] | −
N[C@@H](Cc1ccccc1)C(=O)O [Phenylalanine] | −
N[C@@H](CO)C(=O)O [Serine] | −
C[C@@H](O)[C@H](N)C(=O)O [Threonine] | +
N[C@@H](Cc1c[nH]c2ccccc12)C(=O)O [Tryptophan] | +
CC(C)[C@H](N)C(=O)O [Valine] | +
Alanine | −
Arginine | −
Lysine | −
Proline | +
Tyrosine | −
